How the values were obtained:
[1] = Metabolic stability test in pooled human liver microsomes; format: in vitro ADME; conditions: human liver microsomes 0.5 mg protein/mL, 1 mmol/L NADPH, 37° C., 30 minutes
In short: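 Remaining-rate readout: parent compound left after 30 min versus 0 min (set as 100%), measured by LC/MS/MS or SPE/MS. Oxidative reaction ran at 37° C. with 1 mmol/L NADPH, 0.5 mg protein/mL pooled human microsomes, 50 mmol/L Tris-HCl pH 7.4 buffer.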

[2] = tested on: Mycobacterium avium ATCC700898; test: Determination of IC85 against M. avium (resazurin fluorescence); format: cell-based; conditions: Mycobacterium avium, ATCC700898, M. avium ATCC700898, CAMHB medium, 37° C., 3 days incubation then resazurin, fluorescence one day later; read-out: IC85

| Structure (SMILES) | MS_h_% (remaining amount of compound after reaction, 0 minute = 100%) [1] [%] | IC85 [2] [µM] |
| --- | --- | --- |
| Cc1ccn2c(C(=O)NCc3ccc(N4CCN(c5ccc(OC(F)(F)F)cc5)CC4)c(F)c3)c(C)nc2c1 [Compound I-2-12] | 71.4 | 0.023 |
| Cc1ccn2c(C(=O)NCc3ccc(N4CCN(c5ccc(C(F)(F)F)cn5)CC4)c(C(F)(F)F)c3)c(C)nc2c1 [Compound I-2-13] | 67.6 | 0.35 |
| Cc1nc2ccc(Br)cn2c1C(=O)NCc1ccc(N2CCN(c3ccc(OC(F)(F)F)cc3)[C@@H](C)C2)c(F)c1 [Compound I-2-14] | 67 | 0.0045 |
| Cc1ccn2c(C(=O)NCc3ccc(N4CCN(c5ccc(OC(F)(F)F)cc5)[C@@H](C)C4)c(C(F)(F)F)c3)c(C)nc2c1 [Compound I-2-15] | 59.2 | 0.25 |
| CCc1nc2ccc(Cl)cn2c1C(=O)NCc1ccc(N2CCN(c3ccc(OC(F)(F)F)cc3)C3(CCCC3)C2)c(F)c1 [Compound I-2-16] | 58.2 | 0.086 |
| CCc1nc2cc(F)ccn2c1C(=O)NCc1ccc(O[C@H]2C[C@H](Oc3ccc(OC(F)(F)F)cc3)C2)c(F)c1.Cl [Compound I-3-1] | 99.1 | 0.054 |
| CCc1nc2ccc(Cl)cn2c1C(=O)NCc1ccc(-c2cccc(OC(F)(F)F)c2)c(F)c1 [Compound I-3-2] | 97.7 | 0.0023 |
| CCc1nc2ccc(Cl)cn2c1C(=O)NCc1ccc(-c2ccc(OC(C)C)cc2)c(F)c1 [Compound I-3-3] | 96.1 | 0.0094 |
| Cc1ccn2c(C(=O)NCc3ccc(-c4ccc(OCC(F)(F)F)cc4)c(F)c3)c(C)nc2c1 [Compound I-3-4] | 94.6 | 0.043 |
| [2H]c1c(C([2H])([2H])[2H])c([2H])c2nc(C)c(C(=O)NCc3ccc(C4CCN(c5ccc(OC(F)(F)F)cc5)CC4)c(F)c3)n2c1[2H] [Compound I-3-5] | 93.7 | 0.021 |
| Cc1cn2c(C(=O)NCc3ccc(N4CCC(c5ccc(OC(F)(F)F)cc5)CC4)c(F)c3)c(C)nc2s1.Cl [Compound I-3-6] | 91.7 | 0.26 |
| CCc1nc2ccc(Cl)cn2c1C(=O)NCc1ccc(-c2ccc(OC(F)(F)F)cc2)c(F)c1 [Compound I-3-7] | 89.5 | 0.056 |
| COc1ccn2nc(C)c(C(=O)NCc3ccc(N4CCC(c5ccc(OC(F)(F)F)cc5)CC4)cc3)c2c1 [Compound I-3-8] | 87.1 | 0.028 |
| Cc1ccn2c(C(=O)NCc3ccc(-c4ccc(OC(C)C)cc4)c(F)c3)c(C)nc2c1 [Compound I-3-9] | 85.9 | 0.13 |
| Cc1cn2c(C(=O)NCc3ccc(N4CCC5(CCN(c6ccc(C(F)(F)F)cc6)CC5)CC4)c(F)c3)c(C)nc2s1 [Compound I-3-10] | 84.9 | 0.029 |
| [2H]c1c(C([2H])([2H])[2H])c([2H])n2c(C(=O)NCc3ccc(-c4ccc(C(F)(F)F)cc4)cc3)c(C)nc2c1[2H] [Compound I-3-11] | 84.7 | 0.0028 |
| Cc1cn2c(C(=O)NCc3ccc(N4CC=C(c5ccc(OC(F)(F)F)cc5)CC4)c(F)c3)c(C)nc2s1.Cl [Compound I-3-12] | 84.4 | 0.34 |
| Cc1cn2c(C(=O)NCc3ccc(N4CCC(c5ccc(OC(F)(F)F)cc5)CC4)c(Cl)c3)c(C)nc2s1.Cl [Compound I-3-13] | 84 | 0.35 |
| Cc1cn2c(C(=O)NCc3ccc(N4CCN(c5ccc(OC(F)(F)F)cc5)C(C)(C)C4)c(F)c3)c(C)nc2s1 [Compound I-3-14] | 82.7 | 0.19 |
| [2H]c1c(C([2H])([2H])[2H])c([2H])n2c(C(=O)NCc3ccc(Oc4cccc(C(F)(F)F)c4)cc3)c(C)nc2c1[2H] [Compound I-3-15] | 82.4 | 0.23 |
| Cc1cn2c(C(=O)NCc3cc(F)c(N4CCC(c5ccc(OC(F)(F)F)cc5)CC4)c(F)c3)c(C)nc2s1.Cl [Compound I-3-16] | 81.4 | 0.11 |
| Cc1ccn2c(C(=O)NCc3ccc4oc(-c5ccc(OC(F)(F)F)cc5)nc4c3)c(C)nc2c1.Cl [Compound I-3-17] | 81.1 | 0.86 |
| CCc1nc2ccc(Cl)cn2c1C(=O)NCc1ccc(-c2ccc(OC(F)(F)F)cc2)nc1 [Compound I-3-18] | 80.9 | 0.19 |
| Cc1ccn2c(C(=O)NCc3ccc(Oc4ccc(C(F)(F)F)cc4)cc3)c(C)nc2c1 [Compound I-3-19] | 80.9 | 0.44 |

| Structure (SMILES) | MS_h_% (remaining amount of compound after reaction, 0 minute = 100%) [1] [%] | IC85 [2] [µM] |
| --- | --- | --- |
| CCc1nc2ccc(Cl)cn2c1C(=O)NCc1ccc(OC2CCC(Oc3ccc(OC(F)(F)F)cc3)CC2)c(F)c1.Cl (stereo not shown) [Compound I-3-20] | 80.8 | 0.018 |
| Cc1ccc2nc(C)c(C(=O)NCc3ccc(Oc4cccc(C(F)(F)F)c4)cc3)n2c1 [Compound I-3-21] | 79.1 | 0.13 |
| Cc1cn2c(C(=O)NCc3ccc(-c4ccc(OC(C)C)cc4)c(F)c3)c(C)nc2s1 [Compound I-3-22] | 78.5 | 0.37 |
| Cc1nc2ccc(F)cn2c1C(=O)NCc1ccc(N2CCN(c3ccc(OC(F)(F)F)cc3)[C@@H](C)C2)cc1 [Compound I-3-23] | 77.8 | 0.015 |
| Cc1nc2ccc(Cl)cn2c1C(=O)NCc1cc(F)c2c(c1)CCN(C1CC=C(OC(F)(F)F)CC1)C2.Cl (stereo not shown) [Compound I-3-24] | 77.5 | 0.13 |
| CCc1nc2ccc(Cl)cn2c1C(=O)NCc1ccc(-n2ccc(C(F)(F)F)n2)cc1 [Compound I-3-25] | 77 | 0.14 |
| Cc1ccn2c(C(=O)NCc3ccc(N4CCN(C5CN(CC(F)(F)F)C5)[C@@H](C)C4)c(F)c3)c(C)nc2c1 [Compound I-3-26] | 77 | 0.96 |
| Cc1nc2ccc(Cl)cn2c1C(=O)NCc1ccc(N2CCC(c3ccc(OC(F)(F)F)cc3)CC2)cc1 [Compound I-3-27] | 75.5 | 0.012 |
| Cc1ccn2c(C(=O)NCc3ccc(N4CCN(c5ccc(OC(F)(F)F)cc5)[C@@H](C)C4)cc3)c(C)nc2c1 [Compound I-3-28] | 75.4 | 0.036 |
| Cc1cn2c(C(=O)NCc3ccc(N4CCN(c5ccc(OC(F)(F)F)cc5)[C@@H](C)C4)c(Cl)c3)c(C)nc2s1.Cl [Compound I-3-29] | 75.1 | 0.061 |
| Cc1cn2c(C(=O)NCc3ccc(-c4ccc(OCC(F)(F)F)cc4)c(F)c3)c(C)nc2s1 [Compound I-3-30] | 75.1 | 0.031 |
| Cc1cn2c(C(=O)NCc3ccc(C4CCN(c5ccc(OC(F)(F)F)cc5)CC4)c(F)c3)c(C)nc2s1 [Compound I-3-31] | 73.9 | 0.33 |
| Cc1cn2c(C(=O)NCc3ccc(N4CCN(c5ccc(OC(F)(F)F)cc5)[C@@H](C)C4)c(F)c3)c(C)nc2s1 [Compound I-3-32] | 72.6 | 0.82 |
| Cc1ccc2nc(C)c(C(=O)NCc3ccc(-c4ccc(C(F)(F)F)cc4)cc3)n2c1 [Compound I-3-33] | 72.6 | 0.0022 |
| Cc1ccn2c(C(=O)NCc3ccc(C4CCN(C5CN(CC(F)(F)F)C5)CC4)c(F)c3)c(C)nc2c1 [Compound I-3-34] | 71.9 | 0.61 |
| [2H]c1c(C([2H])([2H])[2H])c([2H])n2c(C(=O)NCc3ccc(S(F)(F)(F)(F)F)cc3)c(C)nc2c1[2H] [Compound I-3-35] | 71.3 | 0.11 |
| CCc1nc2cc(F)ccn2c1C(=O)NCc1ccc(-n2cc3c(n2)CN(c2ccc(OC(F)(F)F)cc2)C3)c(F)c1.Cl [Compound I-3-36] | 69 | 0.2 |
| Cc1nc2ccc(Br)cn2c1C(=O)NCc1ccc(N2CCC(c3ccc(F)cc3)CC2)cc1 [Compound I-3-37] | 68 | 0.016 |
| CC1=CN2C(=NC(C)C2C(=O)NCc2ccc3c(c2)OCCO3)C=C1 (stereo not shown) [Compound I-3-38] | 67.7 | 0.86 |
| [2H]c1c(C([2H])([2H])[2H])c([2H])n2c(C(=O)NCc3cc(F)ccc3F)c(C)nc2c1[2H] [Compound I-3-39] | 67.2 | 0.8 |
| CCc1nc2cc(C)ccn2c1C(=O)NCc1ccc(Oc2cccc(C(F)(F)F)c2)cc1 [Compound I-3-40] | 66 | 0.59 |
| Cl.O=C(NCc1ccc(OC2CCC(Oc3ccc(OC(F)(F)F)cc3)CC2)c(F)c1)c1cnc2ccc(Cl)cn12 (stereo not shown) [Compound I-3-41] | 65.4 | 0.15 |
| Cc1ccn2c(C(=O)NCc3ccc(N4CCN(CC(F)F)CC4)c(F)c3)cnc2c1 [Compound I-3-42] | 64.6 | 0.93 |

Source: patent US20220340566A1, “BENZYL AMINE-CONTAINING 5,6-HETEROAROMATIC COMPOUNDS USEFUL AGAINST MYCOBACTERIAL INFECTION” (priority 2019, published 2022)
